Source: ChEMBL document CHEMBL5442219

What was measured:
Settings in all cases: Compound concentration 10 µM
[1] = molecular target: 5-hydroxytryptamine receptor 2B (Homo sapiens) (UniProt P41595)
Description: PDSP Primary Binding target: HTR2B - Compounds are tested at 10 uM concentration, plate are incubated at room temperature in the dark for 90 minutes. Reaction are stopped by vacuum filtration onto 0.3% polyethyleneimine soaked filter mats using Filtermate harvester. Scintilation cocktail is then melted onto microwave-dried filters on a hot plate and the radio activity is counted in Microbia counter.

[2] = molecular target: T1, Muscarinic acetylcholine receptor M1 (Homo sapiens) (UniProt P11229)
T1 sequence (whole entry): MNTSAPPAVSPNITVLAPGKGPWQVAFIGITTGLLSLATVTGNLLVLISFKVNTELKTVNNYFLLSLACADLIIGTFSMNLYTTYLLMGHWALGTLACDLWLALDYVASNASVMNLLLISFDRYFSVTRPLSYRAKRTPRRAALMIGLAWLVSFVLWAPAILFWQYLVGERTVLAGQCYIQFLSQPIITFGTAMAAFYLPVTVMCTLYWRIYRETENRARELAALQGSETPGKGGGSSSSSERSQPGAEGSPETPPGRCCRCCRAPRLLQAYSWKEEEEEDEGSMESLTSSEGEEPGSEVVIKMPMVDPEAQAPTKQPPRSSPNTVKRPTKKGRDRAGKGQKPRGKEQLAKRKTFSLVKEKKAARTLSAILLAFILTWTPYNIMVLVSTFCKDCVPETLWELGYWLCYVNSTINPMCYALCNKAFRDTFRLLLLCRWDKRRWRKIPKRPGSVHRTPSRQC
Description: PDSP Primary Binding target: CHRM1 - Compounds are tested at 10 uM concentration, plate are incubated at room temperature in the dark for 90 minutes. Reaction are stopped by vacuum filtration onto 0.3% polyethyleneimine soaked filter mats using Filtermate harvester. Scintilation cocktail is then melted onto microwave-dried filters on a hot plate and the radio activity is counted in Microbia counter.

[3] = molecular target: 5-hydroxytryptamine receptor 1E (Homo sapiens) (UniProt P28566)
Description: PDSP Primary Binding target: HTR1E - Compounds are tested at 10 uM concentration, plate are incubated at room temperature in the dark for 90 minutes. Reaction are stopped by vacuum filtration onto 0.3% polyethyleneimine soaked filter mats using Filtermate harvester. Scintilation cocktail is then melted onto microwave-dried filters on a hot plate and the radio activity is counted in Microbia counter.

[4] = molecular target: D(1A) dopamine receptor (Homo sapiens) (UniProt P21728)
Description: PDSP Primary Binding target: DRD1 - Compounds are tested at 10 uM concentration, plate are incubated at room temperature in the dark for 90 minutes. Reaction are stopped by vacuum filtration onto 0.3% polyethyleneimine soaked filter mats using Filtermate harvester. Scintilation cocktail is then melted onto microwave-dried filters on a hot plate and the radio activity is counted in Microbia counter.

[5] = molecular target: Beta-2 adrenergic receptor (Homo sapiens) (UniProt P07550)
Description: PDSP Primary Binding target: ADRB2 - Compounds are tested at 10 uM concentration, plate are incubated at room temperature in the dark for 90 minutes. Reaction are stopped by vacuum filtration onto 0.3% polyethyleneimine soaked filter mats using Filtermate harvester. Scintilation cocktail is then melted onto microwave-dried filters on a hot plate and the radio activity is counted in Microbia counter.

[6] = molecular target: T2, 5-hydroxytryptamine receptor 3A (Homo sapiens) (UniProt P46098)
T2 sequence (whole entry): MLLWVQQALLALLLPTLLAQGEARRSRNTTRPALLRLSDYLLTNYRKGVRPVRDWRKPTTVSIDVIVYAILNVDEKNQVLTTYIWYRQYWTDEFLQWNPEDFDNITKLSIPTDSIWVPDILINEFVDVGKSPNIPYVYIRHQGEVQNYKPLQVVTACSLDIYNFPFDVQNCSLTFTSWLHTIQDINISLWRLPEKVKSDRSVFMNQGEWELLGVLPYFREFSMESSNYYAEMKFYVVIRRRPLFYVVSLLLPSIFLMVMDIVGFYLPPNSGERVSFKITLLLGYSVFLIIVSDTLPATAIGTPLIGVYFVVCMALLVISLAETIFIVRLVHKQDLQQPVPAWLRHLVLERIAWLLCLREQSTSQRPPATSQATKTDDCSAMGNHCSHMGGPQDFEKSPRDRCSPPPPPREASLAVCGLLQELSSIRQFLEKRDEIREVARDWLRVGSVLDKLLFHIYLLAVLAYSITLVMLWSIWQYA
Description: PDSP Primary Binding target: HTR3A - Compounds are tested at 10 uM concentration, plate are incubated at room temperature in the dark for 90 minutes. Reaction are stopped by vacuum filtration onto 0.3% polyethyleneimine soaked filter mats using Filtermate harvester. Scintilation cocktail is then melted onto microwave-dried filters on a hot plate and the radio activity is counted in Microbia counter.

[7] = molecular target: 5-hydroxytryptamine receptor 6 (Homo sapiens) (UniProt P50406)
Description: PDSP Primary Binding target: HTR6 - Compounds are tested at 10 uM concentration, plate are incubated at room temperature in the dark for 90 minutes. Reaction are stopped by vacuum filtration onto 0.3% polyethyleneimine soaked filter mats using Filtermate harvester. Scintilation cocktail is then melted onto microwave-dried filters on a hot plate and the radio activity is counted in Microbia counter.

[8] = molecular target: Mu-type opioid receptor (Homo sapiens) (UniProt P35372)
Description: PDSP Primary Binding target: OPRM1 - Compounds are tested at 10 uM concentration, plate are incubated at room temperature in the dark for 90 minutes. Reaction are stopped by vacuum filtration onto 0.3% polyethyleneimine soaked filter mats using Filtermate harvester. Scintilation cocktail is then melted onto microwave-dried filters on a hot plate and the radio activity is counted in Microbia counter.

[9] = molecular target: T3, Alpha-2A adrenergic receptor (Homo sapiens) (UniProt P08913)
T3 sequence (whole entry): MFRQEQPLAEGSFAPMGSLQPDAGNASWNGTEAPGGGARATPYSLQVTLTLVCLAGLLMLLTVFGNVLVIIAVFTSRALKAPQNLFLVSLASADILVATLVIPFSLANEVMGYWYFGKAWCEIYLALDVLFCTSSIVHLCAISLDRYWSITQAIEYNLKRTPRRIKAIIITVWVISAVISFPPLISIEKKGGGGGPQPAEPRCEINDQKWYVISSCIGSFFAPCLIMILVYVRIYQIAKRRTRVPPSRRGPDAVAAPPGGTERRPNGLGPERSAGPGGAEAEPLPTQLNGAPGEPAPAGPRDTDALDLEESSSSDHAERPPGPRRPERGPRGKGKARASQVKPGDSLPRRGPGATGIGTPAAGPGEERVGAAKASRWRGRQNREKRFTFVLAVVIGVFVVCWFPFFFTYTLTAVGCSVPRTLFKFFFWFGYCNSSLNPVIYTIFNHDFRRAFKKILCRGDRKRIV
Description: PDSP Primary Binding target: ADRA2A - Compounds are tested at 10 uM concentration, plate are incubated at room temperature in the dark for 90 minutes. Reaction are stopped by vacuum filtration onto 0.3% polyethyleneimine soaked filter mats using Filtermate harvester. Scintilation cocktail is then melted onto microwave-dried filters on a hot plate and the radio activity is counted in Microbia counter.

[10] = molecular target: 5-hydroxytryptamine receptor 2A (Homo sapiens) (UniProt P28223)
Description: PDSP Primary Binding target: HTR2A - Compounds are tested at 10 uM concentration, plate are incubated at room temperature in the dark for 90 minutes. Reaction are stopped by vacuum filtration onto 0.3% polyethyleneimine soaked filter mats using Filtermate harvester. Scintilation cocktail is then melted onto microwave-dried filters on a hot plate and the radio activity is counted in Microbia counter.

[11] = molecular target: Sigma intracellular receptor 2 (Homo sapiens) (UniProt Q5BJF2)
Description: PDSP Primary Binding target: TMEM97 - Compounds are tested at 10 uM concentration, plate are incubated at room temperature in the dark for 90 minutes. Reaction are stopped by vacuum filtration onto 0.3% polyethyleneimine soaked filter mats using Filtermate harvester. Scintilation cocktail is then melted onto microwave-dried filters on a hot plate and the radio activity is counted in Microbia counter.

[12] = molecular target: Beta-3 adrenergic receptor (Homo sapiens) (UniProt P13945)
Description: PDSP Primary Binding target: ADRB3 - Compounds are tested at 10 uM concentration, plate are incubated at room temperature in the dark for 90 minutes. Reaction are stopped by vacuum filtration onto 0.3% polyethyleneimine soaked filter mats using Filtermate harvester. Scintilation cocktail is then melted onto microwave-dried filters on a hot plate and the radio activity is counted in Microbia counter.

[13] = molecular target: 5-hydroxytryptamine receptor 1D (Homo sapiens) (UniProt P28221)
Description: PDSP Primary Binding target: HTR1D - Compounds are tested at 10 uM concentration, plate are incubated at room temperature in the dark for 90 minutes. Reaction are stopped by vacuum filtration onto 0.3% polyethyleneimine soaked filter mats using Filtermate harvester. Scintilation cocktail is then melted onto microwave-dried filters on a hot plate and the radio activity is counted in Microbia counter.

[14] = molecular target: Beta-1 adrenergic receptor (Homo sapiens) (UniProt P08588)
Description: PDSP Primary Binding target: ADRB1 - Compounds are tested at 10 uM concentration, plate are incubated at room temperature in the dark for 90 minutes. Reaction are stopped by vacuum filtration onto 0.3% polyethyleneimine soaked filter mats using Filtermate harvester. Scintilation cocktail is then melted onto microwave-dried filters on a hot plate and the radio activity is counted in Microbia counter.

[15] = molecular target: D(3) dopamine receptor (Homo sapiens) (UniProt P35462)
Description: PDSP Primary Binding target: DRD3 - Compounds are tested at 10 uM concentration, plate are incubated at room temperature in the dark for 90 minutes. Reaction are stopped by vacuum filtration onto 0.3% polyethyleneimine soaked filter mats using Filtermate harvester. Scintilation cocktail is then melted onto microwave-dried filters on a hot plate and the radio activity is counted in Microbia counter.

[16] = molecular target: T4, Muscarinic acetylcholine receptor M5 (Homo sapiens) (UniProt P08912)
T4 sequence (whole entry): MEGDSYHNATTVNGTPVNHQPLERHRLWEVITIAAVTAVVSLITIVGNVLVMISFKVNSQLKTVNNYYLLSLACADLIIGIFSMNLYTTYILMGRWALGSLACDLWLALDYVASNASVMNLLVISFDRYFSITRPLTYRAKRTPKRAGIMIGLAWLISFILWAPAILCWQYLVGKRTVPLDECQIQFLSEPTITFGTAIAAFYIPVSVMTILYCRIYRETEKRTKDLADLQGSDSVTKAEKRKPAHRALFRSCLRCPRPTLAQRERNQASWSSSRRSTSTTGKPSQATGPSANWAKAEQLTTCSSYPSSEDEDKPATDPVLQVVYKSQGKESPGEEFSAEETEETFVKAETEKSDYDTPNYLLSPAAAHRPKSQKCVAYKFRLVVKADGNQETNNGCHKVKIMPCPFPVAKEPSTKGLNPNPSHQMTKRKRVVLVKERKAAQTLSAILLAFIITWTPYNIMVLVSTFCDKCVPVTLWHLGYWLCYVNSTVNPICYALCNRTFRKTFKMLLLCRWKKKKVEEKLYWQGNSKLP
Description: PDSP Primary Binding target: CHRM5 - Compounds are tested at 10 uM concentration, plate are incubated at room temperature in the dark for 90 minutes. Reaction are stopped by vacuum filtration onto 0.3% polyethyleneimine soaked filter mats using Filtermate harvester. Scintilation cocktail is then melted onto microwave-dried filters on a hot plate and the radio activity is counted in Microbia counter.

Chain of 5-hydroxytryptamine receptor 1E (Homo sapiens) (P28566 whole entry): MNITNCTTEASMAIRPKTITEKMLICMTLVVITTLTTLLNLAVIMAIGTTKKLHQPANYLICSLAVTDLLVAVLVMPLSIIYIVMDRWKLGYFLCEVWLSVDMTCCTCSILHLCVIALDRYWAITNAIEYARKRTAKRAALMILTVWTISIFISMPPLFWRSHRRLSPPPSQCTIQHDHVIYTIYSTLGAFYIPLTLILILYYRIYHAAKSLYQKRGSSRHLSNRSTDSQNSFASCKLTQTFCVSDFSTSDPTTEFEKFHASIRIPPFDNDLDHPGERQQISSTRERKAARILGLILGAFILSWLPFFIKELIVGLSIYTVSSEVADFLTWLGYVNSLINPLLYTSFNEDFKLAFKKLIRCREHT
Chain of Beta-1 adrenergic receptor (Homo sapiens) (P08588 whole entry, looked up): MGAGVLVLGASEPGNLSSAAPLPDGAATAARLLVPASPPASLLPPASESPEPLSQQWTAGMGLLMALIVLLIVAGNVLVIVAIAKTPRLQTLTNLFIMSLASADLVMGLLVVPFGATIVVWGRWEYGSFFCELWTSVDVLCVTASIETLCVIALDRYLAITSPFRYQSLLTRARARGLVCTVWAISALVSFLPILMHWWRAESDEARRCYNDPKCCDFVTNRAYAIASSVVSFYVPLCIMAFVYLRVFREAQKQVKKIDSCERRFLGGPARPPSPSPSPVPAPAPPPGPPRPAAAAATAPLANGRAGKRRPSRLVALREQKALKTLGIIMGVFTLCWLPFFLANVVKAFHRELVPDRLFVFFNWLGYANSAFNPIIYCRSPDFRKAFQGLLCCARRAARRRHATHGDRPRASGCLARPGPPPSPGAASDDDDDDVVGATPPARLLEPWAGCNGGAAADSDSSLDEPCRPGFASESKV
Chain of Beta-2 adrenergic receptor (Homo sapiens) (P07550 whole entry, looked up): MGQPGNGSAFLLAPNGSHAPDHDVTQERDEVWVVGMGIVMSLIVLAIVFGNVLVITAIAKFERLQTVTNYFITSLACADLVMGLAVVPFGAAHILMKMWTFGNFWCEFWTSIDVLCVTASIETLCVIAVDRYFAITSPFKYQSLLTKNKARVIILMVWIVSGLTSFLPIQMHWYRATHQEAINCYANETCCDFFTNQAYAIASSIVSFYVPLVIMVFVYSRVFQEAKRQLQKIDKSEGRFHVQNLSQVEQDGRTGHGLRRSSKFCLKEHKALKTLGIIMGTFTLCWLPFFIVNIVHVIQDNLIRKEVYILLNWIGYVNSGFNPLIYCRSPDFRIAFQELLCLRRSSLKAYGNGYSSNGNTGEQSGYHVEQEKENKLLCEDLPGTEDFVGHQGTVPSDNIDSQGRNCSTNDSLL
Chain of 5-hydroxytryptamine receptor 1D (Homo sapiens) (P28221 whole entry): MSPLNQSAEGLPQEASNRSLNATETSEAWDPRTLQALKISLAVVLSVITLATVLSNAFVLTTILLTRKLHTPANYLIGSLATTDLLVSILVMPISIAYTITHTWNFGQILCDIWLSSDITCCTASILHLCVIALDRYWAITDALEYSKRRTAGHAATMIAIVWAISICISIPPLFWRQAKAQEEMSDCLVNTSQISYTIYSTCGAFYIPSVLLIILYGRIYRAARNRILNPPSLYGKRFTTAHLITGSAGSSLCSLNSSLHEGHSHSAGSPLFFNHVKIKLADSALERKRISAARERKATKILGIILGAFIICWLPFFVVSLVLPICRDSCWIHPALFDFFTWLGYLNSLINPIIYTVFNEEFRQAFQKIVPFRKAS
Chain of D(3) dopamine receptor (Homo sapiens) (P35462 whole entry): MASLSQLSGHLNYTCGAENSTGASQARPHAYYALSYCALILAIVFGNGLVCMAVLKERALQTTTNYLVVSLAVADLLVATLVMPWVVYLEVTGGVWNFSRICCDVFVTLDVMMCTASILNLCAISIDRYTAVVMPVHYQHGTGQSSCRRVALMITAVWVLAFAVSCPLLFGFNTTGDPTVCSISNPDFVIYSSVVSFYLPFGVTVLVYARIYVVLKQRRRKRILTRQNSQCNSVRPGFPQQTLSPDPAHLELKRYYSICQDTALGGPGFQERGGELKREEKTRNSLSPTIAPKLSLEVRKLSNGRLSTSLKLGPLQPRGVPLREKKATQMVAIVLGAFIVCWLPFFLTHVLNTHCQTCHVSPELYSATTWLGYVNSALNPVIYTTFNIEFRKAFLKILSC
Chain of Sigma intracellular receptor 2 (Homo sapiens) (Q5BJF2 whole entry): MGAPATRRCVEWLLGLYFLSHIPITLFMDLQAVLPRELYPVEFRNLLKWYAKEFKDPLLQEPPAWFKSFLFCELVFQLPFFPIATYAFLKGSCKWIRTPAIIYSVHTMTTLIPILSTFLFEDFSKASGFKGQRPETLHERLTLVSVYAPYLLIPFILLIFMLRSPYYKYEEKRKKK
Chain of Beta-3 adrenergic receptor (Homo sapiens) (P13945 whole entry, looked up): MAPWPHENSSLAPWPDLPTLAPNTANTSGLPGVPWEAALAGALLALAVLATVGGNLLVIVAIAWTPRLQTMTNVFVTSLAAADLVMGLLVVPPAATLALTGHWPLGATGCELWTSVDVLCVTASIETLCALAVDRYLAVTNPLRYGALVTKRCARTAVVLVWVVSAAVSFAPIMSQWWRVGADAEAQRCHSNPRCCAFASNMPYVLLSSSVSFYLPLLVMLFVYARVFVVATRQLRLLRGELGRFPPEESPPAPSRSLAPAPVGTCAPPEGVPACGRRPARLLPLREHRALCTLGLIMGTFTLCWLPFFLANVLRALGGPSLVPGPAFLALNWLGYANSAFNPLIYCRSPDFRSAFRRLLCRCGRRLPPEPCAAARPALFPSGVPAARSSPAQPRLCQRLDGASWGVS
Chain of Mu-type opioid receptor (Homo sapiens) (P35372 whole entry): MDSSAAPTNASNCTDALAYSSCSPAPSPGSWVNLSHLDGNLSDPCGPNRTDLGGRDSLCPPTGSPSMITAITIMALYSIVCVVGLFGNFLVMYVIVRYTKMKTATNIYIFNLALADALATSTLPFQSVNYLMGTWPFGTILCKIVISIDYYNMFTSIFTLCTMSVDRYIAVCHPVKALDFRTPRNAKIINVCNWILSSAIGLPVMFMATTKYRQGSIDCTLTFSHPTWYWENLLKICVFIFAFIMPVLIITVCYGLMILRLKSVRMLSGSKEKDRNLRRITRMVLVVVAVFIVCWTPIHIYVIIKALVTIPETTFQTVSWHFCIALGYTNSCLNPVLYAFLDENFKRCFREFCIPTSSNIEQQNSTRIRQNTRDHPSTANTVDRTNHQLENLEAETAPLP
Chain of D(1A) dopamine receptor (Homo sapiens) (P21728 whole entry): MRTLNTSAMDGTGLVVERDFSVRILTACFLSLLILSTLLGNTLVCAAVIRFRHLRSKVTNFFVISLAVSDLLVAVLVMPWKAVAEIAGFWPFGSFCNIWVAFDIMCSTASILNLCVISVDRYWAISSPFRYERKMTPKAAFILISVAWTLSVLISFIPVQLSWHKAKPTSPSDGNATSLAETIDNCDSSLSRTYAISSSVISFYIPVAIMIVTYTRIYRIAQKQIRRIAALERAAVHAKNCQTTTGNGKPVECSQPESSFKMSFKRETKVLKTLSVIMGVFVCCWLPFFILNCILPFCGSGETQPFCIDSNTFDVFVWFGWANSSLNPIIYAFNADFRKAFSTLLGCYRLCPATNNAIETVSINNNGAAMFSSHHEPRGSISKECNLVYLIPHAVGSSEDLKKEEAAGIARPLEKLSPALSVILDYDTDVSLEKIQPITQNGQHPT
Chain of 5-hydroxytryptamine receptor 2B (Homo sapiens) (P41595 whole entry): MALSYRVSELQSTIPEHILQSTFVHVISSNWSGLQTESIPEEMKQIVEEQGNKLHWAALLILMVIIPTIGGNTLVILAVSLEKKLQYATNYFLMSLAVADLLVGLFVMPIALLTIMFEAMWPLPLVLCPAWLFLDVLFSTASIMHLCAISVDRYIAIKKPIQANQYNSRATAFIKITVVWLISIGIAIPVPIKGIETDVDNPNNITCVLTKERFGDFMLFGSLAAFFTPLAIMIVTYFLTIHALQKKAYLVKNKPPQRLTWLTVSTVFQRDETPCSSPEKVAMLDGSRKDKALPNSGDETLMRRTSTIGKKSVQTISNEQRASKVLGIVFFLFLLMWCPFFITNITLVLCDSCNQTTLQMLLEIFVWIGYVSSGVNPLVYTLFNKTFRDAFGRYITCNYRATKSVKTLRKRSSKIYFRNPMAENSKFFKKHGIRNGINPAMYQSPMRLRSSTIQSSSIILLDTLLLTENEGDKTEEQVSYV
Chain of 5-hydroxytryptamine receptor 2A (Homo sapiens) (P28223 whole entry): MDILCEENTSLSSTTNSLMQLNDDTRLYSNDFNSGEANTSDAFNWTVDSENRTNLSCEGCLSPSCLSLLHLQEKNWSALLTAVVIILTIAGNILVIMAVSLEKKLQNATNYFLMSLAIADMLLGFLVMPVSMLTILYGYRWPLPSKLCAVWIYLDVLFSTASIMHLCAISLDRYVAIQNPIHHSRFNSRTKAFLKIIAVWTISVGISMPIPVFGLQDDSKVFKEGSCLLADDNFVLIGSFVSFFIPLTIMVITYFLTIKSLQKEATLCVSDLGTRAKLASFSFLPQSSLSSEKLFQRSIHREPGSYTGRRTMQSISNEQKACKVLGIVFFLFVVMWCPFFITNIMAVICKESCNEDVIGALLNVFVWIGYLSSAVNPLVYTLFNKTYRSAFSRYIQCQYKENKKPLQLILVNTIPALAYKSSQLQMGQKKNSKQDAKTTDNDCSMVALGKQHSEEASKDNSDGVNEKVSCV
Chain of 5-hydroxytryptamine receptor 6 (Homo sapiens) (P50406 whole entry): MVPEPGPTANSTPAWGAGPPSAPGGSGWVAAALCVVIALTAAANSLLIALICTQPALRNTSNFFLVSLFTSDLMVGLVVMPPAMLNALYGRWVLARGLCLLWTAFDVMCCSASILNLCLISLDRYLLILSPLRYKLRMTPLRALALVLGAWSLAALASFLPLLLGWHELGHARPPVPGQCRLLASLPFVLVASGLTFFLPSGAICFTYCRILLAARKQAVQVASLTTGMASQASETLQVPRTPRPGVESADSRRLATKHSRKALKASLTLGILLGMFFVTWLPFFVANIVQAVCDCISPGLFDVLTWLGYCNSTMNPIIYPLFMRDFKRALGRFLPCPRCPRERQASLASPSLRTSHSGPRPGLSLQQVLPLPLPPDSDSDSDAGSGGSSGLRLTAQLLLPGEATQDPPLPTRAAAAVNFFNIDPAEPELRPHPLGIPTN

SMILES | inhibition [1] | inhibition [2] | inhibition [3] | inhibition [4] | inhibition [5] | inhibition [6] | inhibition [7] | inhibition [8] | inhibition [9] | inhibition [10] | inhibition [11] | inhibition [12] | inhibition [13] | inhibition [14] | inhibition [15] | inhibition [16]
COc1ccc(OC(F)(F)F)cc1CN[C@H]1CCCN[C@H]1c1ccccc1 | 87.7% | 13.7% | 12.4% | 4.84% | -1.91% | 13.1% | 23.8% | 41.3% | 38.4% | 64.8% | 90.5% | 6.31% | -4.51% | 1.65% | 36.3% | –
COc1ccc(NS(=O)(=O)c2sc3ccc(Cl)cc3c2C)cc1N1CCNCC1 | 71.2% | -7.39% | 13.8% | 16.9% | 32.3% | 73.3% | 87.3% | 56.3% | 75.7% | 37.4% | 81.8% | 56.5% | 66.8% | 50.6% | 91% | 16.8%
CN1C2CCC1CC(OC(c1ccc(F)cc1)c1ccc(F)cc1)C2 (stereo not drawn) | 102% | 94.5% | 14.3% | 83% | -6.19% | 79.5% | 96.1% | 59.1% | – | 99.6% | 100% | 36% | 74% | 33% | 79.5% | 94.5%
CCCSc1nc(N[C@@H]2C[C@H]2c2ccc(F)c(F)c2)c2nnn([C@@H]3C[C@H](OCCO)[C@@H](O)[C@H]3O)c2n1 | 33.3% | 18.3% | 3.9% | 24% | 5.05% | 4.33% | 7.72% | -2.99% | – | 10.9% | 63.6% | 49.7% | 48.6% | 4.3% | 29.6% | 10.8%
CCCCN(CCCC)C(=O)CN1C[C@@H](c2ccc3c(c2)OCO3)[C@H](C(=O)O)[C@H]1c1ccc(OC)cc1 | -9.25% | -7.47% | -0.09% | -3.74% | – | 2.68% | – | 0.92% | 0.09% | 13.8% | -0.23% | -9.03% | -9.55% | -6.31% | 28.4% | 30.2%
Clc1cccc(COc2cncc(N3CCNCC3)n2)c1 | 99.5% | 82% | 76% | 29.3% | 32.6% | 97.8% | 97.9% | 0.78% | 33.7% | 99% | 86.4% | 28.7% | 89.1% | 50.8% | 79.6% | 85.1%
COc1cccc([C@@H](C)NCCCc2ccccc2Cl)c1 | 96.6% | -0.51% | 4.34% | 12.6% | -2.01% | -2.74% | 84.3% | 57.2% | 45.1% | 91.1% | 96.3% | 50.2% | 33.7% | 15.9% | 85% | 9.55%
CCc1ccc(OCc2ccccc2C(=O)Nc2ccc3nc(C)cc(N)c3c2)cc1 | 74.8% | 74.4% | 9.69% | 47.8% | 8.05% | 24.7% | 46.5% | 81.7% | 42.2% | 83.4% | 91.7% | 68.6% | 59.3% | 3.07% | 33.9% | 24%
